# Source: PubChem BioAssay AID2060507 (Molecular Pharmacology Branch, DTP, NCI, 2025)
# Tested on: 519858-162-T-J1-PDC complex spheroid viability
# Assay: Anticancer human tumor 519858-162-T-J1-PDC patient-derived colon adenocarcinoma cell line growth inhibition [GQUAD]
# Settings: for IC50: curve of first compound; for viability, T/C: stronger effect = lower value
# Outline: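 Tumor cells were grown as complex spheroids with HUVEC endothelial cells and mesenchymal stem cells as stroma. G-quadruplex stabilizers were combined with targeted agents over half-log dilutions from near the clinical Cmax, or from 10 microM.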
# [1] = second compound 0.0316 µM, first compound 0.0316 µM
# [2] = second compound 0.0316 µM, first compound 0.316 µM
# [3] = second compound 0.1 µM, first compound 0.0316 µM
# [4] = second compound 0.1 µM, first compound 0.316 µM
# [5] = second compound 0.316 µM, first compound 0.0316 µM
# [6] = second compound 0.316 µM, first compound 0.316 µM
# [7] = second compound 1 µM, first compound 0.0316 µM
# [8] = second compound 1 µM, first compound 0.316 µM
# [9] = second compound 3.16 µM, first compound 0.0316 µM
# [10] = second compound 3.16 µM, first compound 0.316 µM
# [11] = second compound 10 µM, first compound 0.0316 µM
# [12] = second compound 10 µM, first compound 0.316 µM
# [13] = second compound 0.0316 µM, first compound 0.1 µM
# [14] = second compound 0.0316 µM, first compound 1 µM
# [15] = second compound 0.0316 µM, first compound 3.16 µM
# [16] = second compound 0.0316 µM, first compound 10 µM
# [17] = second compound 0.1 µM, first compound 0.1 µM
# [18] = second compound 0.1 µM, first compound 1 µM
# [19] = second compound 0.1 µM, first compound 3.16 µM
# [20] = second compound 0.1 µM, first compound 10 µM
# [21] = second compound 0.316 µM, first compound 0.1 µM
# [22] = second compound 0.316 µM, first compound 1 µM
# [23] = second compound 0.316 µM, first compound 3.16 µM
# [24] = second compound 0.316 µM, first compound 10 µM
# [25] = second compound 1 µM, first compound 0.1 µM
# [26] = second compound 1 µM, first compound 1 µM
# [27] = second compound 1 µM, first compound 3.16 µM
# [28] = second compound 1 µM, first compound 10 µM
# [29] = second compound 3.16 µM, first compound 0.1 µM
# [30] = second compound 3.16 µM, first compound 1 µM
# [31] = second compound 3.16 µM, first compound 3.16 µM
# [32] = second compound 3.16 µM, first compound 10 µM
# [33] = second compound 10 µM, first compound 0.1 µM
# [34] = second compound 10 µM, first compound 1 µM
# [35] = second compound 10 µM, first compound 3.16 µM
# [36] = second compound 10 µM, first compound 10 µM
# 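Note: spheroids exposed to compounds for 7 days.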
# 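Throughout, for viability, T/C: 100% = DMSO vehicle control viability.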
structure (smiles),measurement,setting,value
CCc1c2c(nc3ccc(O)cc13)-c1cc3c(c(=O)n1C2)COC(=O)[C@]3(O)CC + Cc1cnc(CNC(=O)c2c(=O)c3ccc(N4CCCN(C)CC4)nc3n3c2sc2ccccc23)cn1,IC50,second compound 0.0316 µM,> 0.316 µM
same,IC50,second compound 0.1 µM,> 0.316 µM
same,IC50,second compound 0.316 µM,> 0.316 µM
same,IC50,second compound 1 µM,> 0.316 µM
same,IC50,second compound 3.16 µM,< 0.000999 µM
same,IC50,second compound 10 µM,< 0.000999 µM
same,"viability, T/C","second compound 0.0316 µM, first compound 0.000999 µM",121%
same,"viability, T/C","second compound 0.0316 µM, first compound 0.00316 µM",57.5%
same,"viability, T/C","second compound 0.0316 µM, first compound 0.00999 µM",81.9%
same,"viability, T/C",[1],67.6%
same,"viability, T/C","second compound 0.0316 µM, first compound 0.0999 µM",74.8%
same,"viability, T/C",[2],64.7%
same,"viability, T/C","second compound 0.1 µM, first compound 0.000999 µM",67.5%
same,"viability, T/C","second compound 0.1 µM, first compound 0.00316 µM",105%
same,"viability, T/C","second compound 0.1 µM, first compound 0.00999 µM",89.3%
same,"viability, T/C",[3],55.3%
same,"viability, T/C","second compound 0.1 µM, first compound 0.0999 µM",61.1%
same,"viability, T/C",[4],48.2%
same,"viability, T/C","second compound 0.316 µM, first compound 0.000999 µM",95.1%
same,"viability, T/C","second compound 0.316 µM, first compound 0.00316 µM",94.8%
same,"viability, T/C","second compound 0.316 µM, first compound 0.00999 µM",66.2%
same,"viability, T/C",[5],67.2%
same,"viability, T/C","second compound 0.316 µM, first compound 0.0999 µM",65%
same,"viability, T/C",[6],69.1%
same,"viability, T/C","second compound 1 µM, first compound 0.000999 µM",66.6%
same,"viability, T/C","second compound 1 µM, first compound 0.00316 µM",42.9%
same,"viability, T/C","second compound 1 µM, first compound 0.00999 µM",72.2%
same,"viability, T/C",[7],55%
same,"viability, T/C","second compound 1 µM, first compound 0.0999 µM",75%
same,"viability, T/C",[8],80.4%
same,"viability, T/C","second compound 3.16 µM, first compound 0.000999 µM",35.9%
same,"viability, T/C","second compound 3.16 µM, first compound 0.00316 µM",48.5%
same,"viability, T/C","second compound 3.16 µM, first compound 0.00999 µM",47.8%
same,"viability, T/C",[9],47.6%
same,"viability, T/C","second compound 3.16 µM, first compound 0.0999 µM",52.8%
same,"viability, T/C",[10],55%
same,"viability, T/C","second compound 10 µM, first compound 0.000999 µM",42.9%
same,"viability, T/C","second compound 10 µM, first compound 0.00316 µM",38%
same,"viability, T/C","second compound 10 µM, first compound 0.00999 µM",62.9%
same,"viability, T/C",[11],47%
same,"viability, T/C","second compound 10 µM, first compound 0.0999 µM",50.3%
same,"viability, T/C",[12],52.1%
C=CCn1c(=O)c2cnc(Nc3ccc(N4CCN(C)CC4)cc3)nc2n1-c1cccc(C(C)(C)O)n1 + CN(C)c1ccc(Nc2c3ccc(NC(=O)CCN4CCCC4)cc3nc3cc(NC(=O)CCN4CCCC4)ccc23)cc1,IC50,second compound 0.0316 µM,> 10 µM
same,IC50,second compound 0.1 µM,> 10 µM
same,IC50,second compound 0.316 µM,> 10 µM
same,IC50,second compound 1 µM,> 10 µM
same,IC50,second compound 3.16 µM,> 10 µM
same,IC50,second compound 10 µM,> 10 µM
same,"viability, T/C",[1],95.3%
same,"viability, T/C",[13],120%
same,"viability, T/C",[2],117%
same,"viability, T/C",[14],83.3%
same,"viability, T/C",[15],75.2%
same,"viability, T/C",[16],120%
same,"viability, T/C",[3],150%
same,"viability, T/C",[17],86.8%
same,"viability, T/C",[4],92.5%
same,"viability, T/C",[18],64.6%
same,"viability, T/C",[19],88.4%
same,"viability, T/C",[20],67.6%
same,"viability, T/C",[5],112%
same,"viability, T/C",[21],89.7%
same,"viability, T/C",[6],88.9%
same,"viability, T/C",[22],63.8%
same,"viability, T/C",[23],85.1%
same,"viability, T/C",[24],104%
same,"viability, T/C",[7],72.3%
same,"viability, T/C",[25],74.7%
same,"viability, T/C",[8],61.4%
same,"viability, T/C",[26],65%
same,"viability, T/C",[27],80.4%
same,"viability, T/C",[28],80.2%
same,"viability, T/C",[9],77.7%
same,"viability, T/C",[29],62%
same,"viability, T/C",[10],66.7%
same,"viability, T/C",[30],67.6%
same,"viability, T/C",[31],62.1%
same,"viability, T/C",[32],91.1%
same,"viability, T/C",[11],78%
same,"viability, T/C",[33],63.8%
same,"viability, T/C",[12],57.7%
same,"viability, T/C",[34],62%
same,"viability, T/C",[35],89.3%
same,"viability, T/C",[36],137%
COc1cc(C2c3cc4c(cc3C(OC3OC5COC(C)OC5C(O)C3O)C3COC(=O)C23)OCO4)cc(OC)c1O (stereo unspecified) + Cc1cnc(CNC(=O)c2c(=O)c3ccc(N4CCCN(C)CC4)nc3n3c2sc2ccccc23)cn1,IC50,second compound 0.0316 µM,> 10 µM
same,IC50,second compound 0.1 µM,> 10 µM
same,IC50,second compound 0.316 µM,8.09 µM
same,IC50,second compound 1 µM,> 10 µM
same,IC50,second compound 3.16 µM,5.35 µM
same,IC50,second compound 10 µM,< 0.0316 µM
same,"viability, T/C",[1],90%
same,"viability, T/C",[13],94.6%
same,"viability, T/C",[2],94.9%
same,"viability, T/C",[14],105%
same,"viability, T/C",[15],59.7%
same,"viability, T/C",[16],83.3%
same,"viability, T/C",[3],93.7%
same,"viability, T/C",[17],115%
same,"viability, T/C",[4],86.5%
same,"viability, T/C",[18],79.9%
same,"viability, T/C",[19],80.4%
same,"viability, T/C",[20],64.4%
same,"viability, T/C",[5],59%
same,"viability, T/C",[21],69.9%
same,"viability, T/C",[6],103%
same,"viability, T/C",[22],63.8%
same,"viability, T/C",[23],71.9%
same,"viability, T/C",[24],45.1%
same,"viability, T/C",[7],80.4%
same,"viability, T/C",[25],51.6%
same,"viability, T/C",[8],62%
same,"viability, T/C",[26],58.7%
same,"viability, T/C",[27],55.2%
same,"viability, T/C",[28],61.8%
same,"viability, T/C",[9],57%
same,"viability, T/C",[29],60.3%
same,"viability, T/C",[10],66.5%
same,"viability, T/C",[30],55.7%
same,"viability, T/C",[31],49.5%
same,"viability, T/C",[32],47.7%
same,"viability, T/C",[11],52.8%
same,"viability, T/C",[33],40.8%
same,"viability, T/C",[12],56.4%
same,"viability, T/C",[34],41%
same,"viability, T/C",[35],42.5%
same,"viability, T/C",[36],74.1%
